Regarding `*/C(C)=C(/*)[Si](C)(C)CC[Si](C)(C)C` (repeat unit), the glass transition temperature was 200.00 °C. For `*C/C=C/C[Si](*)(C)C` (repeat unit), the glass transition temperature is -57.50 °C.

Take `*C/C=C/C[Si](*)(C)CCCOc1ccc(-c2ccccc2)cc1` (repeat unit): the glass transition temperature was 10.00 °C. As to `*C/C=C/C[Si](*)(C=C)C=C` (repeat unit), the glass transition temperature was -65.00 °C.

The molecule `*C/C=C/C[Si](*)(CCCOc1ccccc1)c1ccccc1` (repeat unit) displayed a glass transition temperature of -5.00 °C.

`*C/C=C/C[Si](*)(c1ccccc1)c1ccccc1` (repeat unit) gave a glass transition temperature of 34.90 °C. In turn, `*C1CCC(CC2CCC(N3C(=O)c4ccc(-c5ccc6c(c5)C(=O)N(*)C6=O)cc4C3=O)C(C)C2)CC1C` (repeat unit) came in with a glass transition temperature of 260.00 °C. Consider `*C1CCC(CC2CCC(N3C(=O)c4ccc(Oc5ccc6c(c5)C(=O)N(*)C6=O)cc4C3=O)C(C)C2)CC1C` (repeat unit), for which the glass transition temperature came to 250.00 °C. On to `*CC(*)c1ccccc1C(=O)OCCCCCC` (repeat unit), for which the glass transition temperature was determined as 45.00 °C. Then `*CC(*)c1ccccc1COC(C)C` (repeat unit), with 88.00 °C; and `*CC(*)c1ccccc1COCC` (repeat unit), with 74.00 °C; and `*CC(*)n1c2ccccc2c2cc3ccccc3cc21` (repeat unit), with 253.00 °C. For the molecule `*CC(*)n1cc2ccccc2n1` (repeat unit), the glass transition temperature came out at 41.50 °C. On to `*CC(C)(C)C1C(=O)N(c2ccccc2)C(=O)C1*` (repeat unit), for which the glass transition temperature came out at 188.00 °C.

Molecule `*CC(C)(C)C1C(=O)OC(=O)C1*` (repeat unit) yielded a glass transition temperature of 141.00 °C.

Turning to `*CC(C)(N=C=O)C1C(=O)OC(=O)C1*` (repeat unit), the glass transition temperature worked out at 100.00 °C. On to `*CC(OC(C)C)C1C(=O)OC(=O)C1*` (repeat unit), for which the glass transition temperature was determined as 142.00 °C. Consider `*CC(OCC(C)C)C1(C)C(=O)OC(=O)C1(*)C` (repeat unit), for which the glass transition temperature is 219.00 °C.

Molecule `*CC(OCC(C)C)C1C(=O)OC(=O)C1*` (repeat unit) yielded a glass transition temperature of 145.00 °C. `*CC(OCC)C1C(=O)OC(=O)C1*` (repeat unit): the glass transition temperature is 146.00 °C. In the case of `*CC(c1ccccc1)C1C(=O)N(C(C)(C)C)C(=O)C1*` (repeat unit), the glass transition temperature came to 178.00 °C. Under `*CC(c1ccccc1)C1C(=O)N(c2ccc(C(C)(C)C)cc2)C(=O)C1*` (repeat unit) stands 237.00 °C; under `*CC1(*)CCCCC1` (repeat unit), 100.00 °C.

`*CC1(*)OCC(c2ccccc2)O1` (repeat unit) showed a glass transition temperature of 75.00 °C.

As for `*CC1CC2CC1C1CCC(Cn3c(=O)c4cc5c(=O)n(*)c(=O)c5cc4c3=O)C21` (repeat unit), the glass transition temperature was found to be 265.00 °C.

Turning to `*CCC(*)(C)C` (repeat unit), the glass transition temperature is -12.00 °C.

In turn, `*CCC(*)(C)c1ccccc1` (repeat unit) yielded a glass transition temperature of 93.00 °C. `*CCC(*)=O` (repeat unit) had a glass transition temperature of 15.00 °C. The molecule `*CCC(C)(C)C(*)(C)C` (repeat unit) had a glass transition temperature of 87.00 °C. The molecule `*CCC(C)C(*)(C)C(=O)OC` (repeat unit) showed a glass transition temperature of 45.00 °C. Under `*CCC(Cl)C(*)Cl` (repeat unit) stands 70.00 °C. `*CCC(F)(F)C(*)(F)F` (repeat unit) came in with a glass transition temperature of -108.00 °C. As for `*CCC(c1ccccc1)C(*)c1ccccc1` (repeat unit), the glass transition temperature turned out to be 104.30 °C. With `*CCC1C(=O)N(CCC)C(=O)C1*` (repeat unit), the glass transition temperature worked out at 90.40 °C. In turn, `*CCC1C(=O)N(CCCCCC)C(=O)C1*` (repeat unit) yielded a glass transition temperature of 41.50 °C.

`*CCC1C(=O)N(CCCCCCCCCCCCCCCCCC)C(=O)C1*` (repeat unit) yielded a glass transition temperature of 67.10 °C.

With `*CCC1C(=O)N(CCCCNC(=O)C(F)(F)C(F)(F)C(F)(F)C(F)(F)C(F)(F)C(F)(F)C(F)(F)F)C(=O)C1*` (repeat unit), the glass transition temperature turned out to be 100.00 °C. `*CCC1CC(OC(=O)CCCCCCCCCCOc2ccc(-c3ccc(C#N)cc3)cc2)CC1*` (repeat unit) showed a glass transition temperature of 24.00 °C. For `*CCCCCCCCCCCCCCCCOC(=O)CC/C=C/CCC(=O)O*` (repeat unit), the glass transition temperature was -18.00 °C.

In the case of `*CCCCCCCCNC(=O)CCP(C)(=O)CCC(=O)N*` (repeat unit), the glass transition temperature worked out at 52.00 °C. Under `*CCCCCCCNC(=O)C(OC)C(OC)C(=O)N*` (repeat unit) stands 87.00 °C; under `*CCCCCCNC(=O)c1cc(NC(=O)C(C(C)CC)N2C(=O)c3ccccc3C2=O)cc(C(=O)N*)c1` (repeat unit), 135.00 °C; under `*CCCCCCOC(=O)CCC(=O)O*` (repeat unit), -50.00 °C. `*CCCCNC(=O)C(OC)C(OC)C(=O)N*` (repeat unit) displayed a glass transition temperature of 100.00 °C. `*CCOCCOC(=O)CCC(=O)O*` (repeat unit) came in with a glass transition temperature of -38.20 °C. Then `*Cc1ccc(CNC(=O)c2cc(C(=O)N*)cc(C(C)(C)C)c2)cc1` (repeat unit), with 204.00 °C.

In the case of `*Cc1cccc(CNC(=O)CCC2(CCC(=O)N*)c3ccccc3-c3ccccc32)c1` (repeat unit), the glass transition temperature worked out at 150.00 °C. In turn, `*NNC(=O)c1ccc(C(*)=O)cc1OCC` (repeat unit) had a glass transition temperature of 240.00 °C. For `*O[Si](C)(C)CCC/N=C1C=C(O)/C(=N\CCC[Si](*)(C)C)C=C\1O` (repeat unit), the glass transition temperature was found to be 70.34 °C. As for `*O[Si](C)(C)CCC/N=C1\c2ccccc2/C(=N\CCC[Si](*)(C)C)c2c(O)ccc(O)c21` (repeat unit), the glass transition temperature stood at 7.50 °C. Then `*O[Si](C)(C)O[Si](C)(C)OC(C)CCC(*)C` (repeat unit), with -83.00 °C; and `*O[Si](C)(CCC(F)(F)F)CCC(F)(F)C(F)(F)C(F)(F)C(F)(F)C(F)(F)C(F)(F)C(F)(F)C(F)(F)CC[Si](*)(C)CCC(F)(F)F` (repeat unit), with -28.00 °C; and `*O[Si](C)(CCC(F)(F)F)CCC(F)(F)CC[Si](*)(C)CCC(F)(F)F` (repeat unit), with -38.00 °C. As for `*O[Si](C)(CCC(F)(F)F)O[Si](C)(CCC(F)(F)F)O[Si](C)(CCC(F)(F)F)CCC(F)(F)C(F)(F)C(F)(F)C(F)(F)C(F)(F)C(F)(F)CC[Si](*)(C)CCC(F)(F)F` (repeat unit), the glass transition temperature was -43.00 °C. `*Oc1ccc(C(C)(C)c2ccc(OC(=O)CC(C)CCC(*)=O)cc2)cc1` (repeat unit) gave a glass transition temperature of 56.00 °C. The molecule `*Oc1cccc(OC(=O)CCC(*)=O)c1` (repeat unit) showed a glass transition temperature of 38.20 °C.
